Source: patent US20150152395A1, “CHIMERIC LUCIFERASES” (Connecticut College, priority 2012, published 2015)

Key:
Test in all cases: Steady-state kinetic constants, bioluminescence activity
[1] = molecular target: T1, Native Ppy, native firefly luciferase from Photinus pyralis (Photinus pyralis, UniProt P08659); assay type: biochemical
T1 construct: wild type, no tag

[2] = molecular target: T2, Photinus pyralis luciferase variant Ppy RE13, Ppy RE9 (SEQ ID NO: 20) with Ile457Val/Arg465Phe/Ala482Gly/His489Lys/Ala503Asn/Lys543Gln, SEQ ID NO: 16 (Photinus pyralis, UniProt P08659, A215L/A482G/A503N/E354I/F295L/H489K/I232A/I351V/I457V/K543Q/R330G/S284T/T214A); assay type: biochemical
T2 construct: N-terminal GPLGS; pGEX-6P-2 GST fusion (tag cleaved), E. coli BL21
T2 sequence (P08659 whole entry T214A/A215L/I232A/S284T/F295L/R330G/I351V/E354I/I457V/A482G/H489K/A503N/K543Q, the tested form may be a part): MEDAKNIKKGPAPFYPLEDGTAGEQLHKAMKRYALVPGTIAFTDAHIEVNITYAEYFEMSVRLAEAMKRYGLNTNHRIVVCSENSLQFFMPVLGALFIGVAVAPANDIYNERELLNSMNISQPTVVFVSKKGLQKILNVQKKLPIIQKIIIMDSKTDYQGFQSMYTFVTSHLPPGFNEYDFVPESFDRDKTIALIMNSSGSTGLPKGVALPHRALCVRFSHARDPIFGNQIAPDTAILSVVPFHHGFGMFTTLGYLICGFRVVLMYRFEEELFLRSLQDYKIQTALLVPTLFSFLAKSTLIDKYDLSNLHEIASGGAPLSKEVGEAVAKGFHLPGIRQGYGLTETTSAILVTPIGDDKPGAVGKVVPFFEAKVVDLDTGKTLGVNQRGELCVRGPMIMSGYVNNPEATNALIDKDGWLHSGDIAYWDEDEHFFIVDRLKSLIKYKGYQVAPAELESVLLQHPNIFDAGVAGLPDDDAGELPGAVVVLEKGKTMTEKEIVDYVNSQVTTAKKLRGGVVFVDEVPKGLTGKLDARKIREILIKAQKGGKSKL

[3] = molecular target: LitWT, recombinant Luciola italica luciferase containing Lys547Gly/Met548Gly, SEQ ID NO: 6, with N-terminal peptide GPLGS (Luciola italica, UniProt Q1AG35, K547G/M548G); settings: kcat divided by Mg-ATP Km
Sequence of LitWT, recombinant Luciola italica luciferase containing Lys547Gly/Met548Gly, SEQ ID NO: 6, with N-terminal peptide GPLGS (Q1AG35 1-548 K547G/M548G): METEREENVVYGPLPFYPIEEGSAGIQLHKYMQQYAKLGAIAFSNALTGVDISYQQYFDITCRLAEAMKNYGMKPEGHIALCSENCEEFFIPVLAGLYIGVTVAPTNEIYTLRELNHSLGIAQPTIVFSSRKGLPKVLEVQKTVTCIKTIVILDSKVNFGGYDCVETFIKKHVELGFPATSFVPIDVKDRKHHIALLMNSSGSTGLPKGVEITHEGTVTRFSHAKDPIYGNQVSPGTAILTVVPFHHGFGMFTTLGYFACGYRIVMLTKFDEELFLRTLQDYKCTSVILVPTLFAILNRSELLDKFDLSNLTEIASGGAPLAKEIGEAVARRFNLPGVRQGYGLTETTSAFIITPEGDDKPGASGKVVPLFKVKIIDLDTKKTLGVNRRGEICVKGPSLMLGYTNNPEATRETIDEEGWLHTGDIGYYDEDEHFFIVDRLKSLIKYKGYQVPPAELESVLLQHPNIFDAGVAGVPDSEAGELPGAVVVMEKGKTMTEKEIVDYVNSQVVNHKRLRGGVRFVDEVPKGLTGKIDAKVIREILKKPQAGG

[4] = molecular target: T3, Photinus pyralis luciferase PpyWT variant Ppy19, Ppy14 plus Leu530Ile/Lys534Val/Ile540Lys/Ala542Pro/Lys543Gln (Photinus pyralis, UniProt P08659, A450P/A482G/A503N/A509H/A542P/D475S/D476E/H489K/I457V/I540K/K511R/K534V/K543Q/L472V/L487M/L530I/T507V/T508N/V517R); assay type: biochemical
T3 construct: N-terminal GPLGS; pGEX-6P-2 GST fusion (tag cleaved), E. coli BL21

[5] = molecular target: T4, Photinus pyralis luciferase variant Ppy RE-TS5/I351V, PpyRE-TS (SEQ ID NO: 24) with Ile457Val/Ala482Gly/His489Lys/Ala503Asn/Lys543Gln/Ile351Val, SEQ ID NO: 14 (Photinus pyralis, UniProt P08659, A215L/A482G/A503N/E354K/F295L/H489K/I232A/I351V/I457V/K543Q/S284T/T214A); assay type: biochemical
T4 construct: N-terminal GPLGS; pGEX-6P-2 GST fusion (tag cleaved), E. coli BL21
T4 sequence (P08659 whole entry T214A/A215L/I232A/S284T/F295L/I351V/E354K/I457V/A482G/H489K/A503N/K543Q, the tested form may be a part): as the sequence (P08659 whole entry T214A/A215L/I232A/S284T/F295L/R330G/I351V/E354I/I457V/A482G/H489K/A503N/K543Q, the tested form may be a part) above, with G330R, I354K counted along it

[6] = tested on: LitPpy, chimeric luciferase of LitWT residues 1-439 and PpyWT residues 440-550; assay type: biochemical, Luciola italica / Photinus pyralis
Experimental: (§1) Reactions were initiated by injection of solutions of the substrate being maintained at saturating concentration. Kinetic constants were determined using a nonlinear least squares method of the Enzyme Kinetics Pro software (SynTex), which fits data from the Michalis-Menten equation to a rectangular hyperbola. The corresponding kcat values were obtained by dividing the Vmax values by the amount (μmol) of each luciferase in the assay mixtures.

[7] = molecular target: T5, Photinus pyralis luciferase PpyWT variant Ppy14, Ala450Pro/Ile457Val/Leu472Val/Asp475Ser/Asp476Glu/Ala482Gly/Leu487Met/His489Lys/Ala503Asn/Thr507Val/Thr508Asn/A (Photinus pyralis, UniProt P08659, A450P/A482G/A503N/A509H/D475S/D476E/H489K/I457V/K511R/L472V/L487M/T507V/T508N/V517R); assay type: biochemical
T5 construct: N-terminal GPLGS; pGEX-6P-2 GST fusion (tag cleaved), E. coli BL21
T5 sequence (P08659 whole entry A450P/I457V/L472V/D475S/D476E/A482G/L487M/H489K/A503N/T507V/T508N/A509H/K511R/V517R, the tested form may be a part): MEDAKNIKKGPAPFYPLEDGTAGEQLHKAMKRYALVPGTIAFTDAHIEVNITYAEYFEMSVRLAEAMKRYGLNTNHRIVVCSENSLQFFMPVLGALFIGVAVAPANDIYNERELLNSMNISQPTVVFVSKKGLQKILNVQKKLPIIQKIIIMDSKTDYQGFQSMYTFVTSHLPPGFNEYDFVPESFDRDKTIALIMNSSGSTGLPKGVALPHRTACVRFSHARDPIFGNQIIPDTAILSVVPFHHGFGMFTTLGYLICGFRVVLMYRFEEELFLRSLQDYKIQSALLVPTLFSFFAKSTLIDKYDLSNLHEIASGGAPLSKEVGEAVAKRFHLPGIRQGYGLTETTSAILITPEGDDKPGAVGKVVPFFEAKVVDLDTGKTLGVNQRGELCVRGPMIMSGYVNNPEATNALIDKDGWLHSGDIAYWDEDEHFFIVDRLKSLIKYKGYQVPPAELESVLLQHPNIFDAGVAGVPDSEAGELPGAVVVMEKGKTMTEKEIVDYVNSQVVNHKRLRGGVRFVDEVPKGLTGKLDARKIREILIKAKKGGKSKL

[8] = tested on: PpyLit (chimeric luciferase, SEQ ID NO: 8) variant I351V/E354K/F465R; assay type: biochemical, Photinus pyralis / Luciola italica
Experimental: as §1

[9] = tested on: PpyLit (chimeric luciferase, SEQ ID NO: 8) variant F465R; assay type: biochemical, Photinus pyralis / Luciola italica
Experimental: as §1

[10] = tested on: PpyLit (chimeric luciferase, SEQ ID NO: 8) variant S284T/I351V/E354K; assay type: biochemical, Photinus pyralis / Luciola italica
Experimental: as §1

[11] = tested on: PpyLit (chimeric luciferase, SEQ ID NO: 8) variant I351V/E354K; assay type: biochemical, Photinus pyralis / Luciola italica
Experimental: as §1

[12] = tested on: PpyLit (chimeric luciferase, SEQ ID NO: 8) variant S284T; assay type: biochemical, Photinus pyralis / Luciola italica
Experimental: as §1

[13] = tested on: PpyLit (chimeric luciferase, SEQ ID NO: 8) variant S284T/F465R; assay type: biochemical, Photinus pyralis / Luciola italica
Experimental: as §1

[14] = tested on: PpyLit (chimeric luciferase, SEQ ID NO: 8) variant I232A/I351V/E354K; assay type: biochemical, Photinus pyralis / Luciola italica
Experimental: as §1

[15] = tested on: PpyLit, chimeric luciferase of PpyWT residues 1-439 and LitWT residues 440-550, SEQ ID NO: 8; assay type: biochemical, Photinus pyralis / Luciola italica
Experimental: as §1

[16] = tested on: Ppy GR-TSLit, chimeric luciferase of Ppy GR-TS N-domain and LitWT C-domain; assay type: biochemical, Photinus pyralis / Luciola italica
Experimental: as §1

[17] = tested on: Ppy RE-TSLit, chimeric luciferase of Ppy RE-TS N-domain and LitWT C-domain; assay type: biochemical, Photinus pyralis / Luciola italica
Experimental: as §1

[18] = molecular target: T6, Photinus pyralis luciferase variant Ppy RE-TS, SEQ ID NO: 24 (Photinus pyralis, UniProt P08659, A215L/E354K/F295L/I232A/S284T/T214A); assay type: biochemical
T6 construct: N-terminal GPLGS; pGEX-6P-2 GST fusion (tag cleaved), E. coli BL21
T6 sequence (P08659 whole entry T214A/A215L/I232A/S284T/F295L/E354K, the tested form may be a part): as the sequence (P08659 whole entry T214A/A215L/I232A/S284T/F295L/R330G/I351V/E354I/I457V/A482G/H489K/A503N/K543Q, the tested form may be a part) above, with G330R, V351I, I354K, V457I, G482A, K489H, N503A, Q543K counted along it

[19] = pH 7.8, LH2 saturating, read-out: Km Mg-ATP
[20] = read-out: Km Mg-ATP, pH 7.8, LH2 saturating

T1 sequence (P08659 whole entry): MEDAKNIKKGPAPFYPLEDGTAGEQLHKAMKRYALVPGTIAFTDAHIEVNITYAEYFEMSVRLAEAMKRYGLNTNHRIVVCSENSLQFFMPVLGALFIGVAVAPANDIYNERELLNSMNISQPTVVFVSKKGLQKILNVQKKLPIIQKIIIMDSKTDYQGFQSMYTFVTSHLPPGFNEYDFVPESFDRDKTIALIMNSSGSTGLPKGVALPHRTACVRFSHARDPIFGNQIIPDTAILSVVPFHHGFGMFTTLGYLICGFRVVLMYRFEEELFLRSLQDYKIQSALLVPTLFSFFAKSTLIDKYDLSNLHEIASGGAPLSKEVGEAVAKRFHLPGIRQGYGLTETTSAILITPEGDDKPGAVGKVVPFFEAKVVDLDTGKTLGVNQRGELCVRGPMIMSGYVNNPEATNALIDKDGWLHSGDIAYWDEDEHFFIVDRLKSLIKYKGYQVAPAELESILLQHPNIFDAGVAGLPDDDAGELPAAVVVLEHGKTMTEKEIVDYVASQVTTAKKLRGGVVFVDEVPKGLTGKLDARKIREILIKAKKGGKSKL

Nc1ncnc2c1ncn2[C@@H]1O[C@H](COP(=O)(O)OP(=O)(O)OP(=O)(O)O)[C@@H](O)[C@H]1O [Mg-ATP] gave a kcat/Km ([1]; kcat divided by Mg-ATP Km) of 1890 ± 130 M⁻¹ s⁻¹, a Km [1, 19] of 90 ± 10 µM and a kcat/Km ([2]; kcat divided by Mg-ATP Km) of 380 ± 100 M⁻¹ s⁻¹. The Km [2, 20] was 289 ± 20 µM, the kcat/Km [3] was 780 ± 110 M⁻¹ s⁻¹ and the kcat/Km ([4]; kcat divided by Mg-ATP Km) was 5990 ± 110 M⁻¹ s⁻¹. It also gave a Km [4, 20] of 50 ± 5 µM, a kcat/Km ([5]; kcat divided by Mg-ATP Km) of 1290 ± 140 M⁻¹ s⁻¹ and a Km [5, 20] of 93 ± 19 µM. For the same molecule, the kcat/Km ([6]; kcat divided by Mg-ATP Km) was 1180 ± 60 M⁻¹ s⁻¹, the Km [6, 19] was 188 ± 10 µM and the kcat/Km ([7]; kcat divided by Mg-ATP Km) was 6340 ± 110 M⁻¹ s⁻¹. For the same molecule, the Km [7, 20] was 41 ± 3 µM, the kcat/Km ([8]; kcat divided by Mg-ATP Km) was 3090 ± 90 M⁻¹ s⁻¹ and the Km [8, 19] was 94 ± 8 µM. For the same molecule, the kcat/Km ([9]; kcat divided by Mg-ATP Km) was 3430 ± 100 M⁻¹ s⁻¹, the Km [9, 19] was 99 ± 6 µM and the kcat/Km ([10]; kcat divided by Mg-ATP Km) was 1360 ± 140 M⁻¹ s⁻¹. For the same molecule, the Km [10, 19] was 95 ± 9 µM, the kcat/Km ([11]; kcat divided by Mg-ATP Km) was 3750 ± 150 M⁻¹ s⁻¹ and the Km [11, 19] was 80 ± 10 µM. The kcat/Km ([12]; kcat divided by Mg-ATP Km) was 1120 ± 150 M⁻¹ s⁻¹, the Km [12, 19] was 89 ± 10 µM and the kcat/Km ([13]; kcat divided by Mg-ATP Km) was 1670 ± 140 M⁻¹ s⁻¹. The Km [13, 19] was 60 ± 6 µM, the kcat/Km ([14]; kcat divided by Mg-ATP Km) was 1860 ± 120 M⁻¹ s⁻¹ and the Km [14, 19] was 129 ± 14 µM. For the same molecule, the “enhanced catalytic efficiency (kcat/Km ATP)” value ([15]; compared to PpyWT) was 2.9 fold, the kcat/Km ([15]; kcat divided by Mg-ATP Km) was 6040 ± 120 M⁻¹ s⁻¹ and the Km [15, 19] was 53 ± 5 µM. For the same molecule, the kcat/Km ([16]; kcat divided by Mg-ATP Km) was 170 ± 70 M⁻¹ s⁻¹, the Km [16, 19] was 466 ± 36 µM and the kcat/Km ([17]; kcat divided by Mg-ATP Km) was 1130 ± 120 M⁻¹ s⁻¹. For the same molecule, the Km [17, 19] was 79 ± 9 µM, the kcat/Km ([18]; kcat divided by Mg-ATP Km) was 820 ± 90 M⁻¹ s⁻¹ and the Km [18, 20] was 68 ± 5 µM.
